Test results reported in patent publication US7705001B2, “Therapeutic substituted gamma lactams” (Allergan, Inc, priority 2008, dated 2010).

Test system: lashes and adjacent hairs of patients
Test: Lash and hair growth observed in glaucoma patients treated in one eye
Format: in vivo, human
Conditions: glaucoma patient treated in only one eye
Excerpt: In the course of treating patients having glaucoma, treatment may only be appropriate in one eye. […] The lash appearance on the lids of the treated eyes would have appeared quite attractive if it represented a bilateral phenomenon. As a result of its asymmetric nature, the long lashes on one side could be construed as disturbing from a cosmetic standpoint. A systemic examination was preformed as a result of the asymmetric phenomenon. It soon became apparent that this altered appearance was not an isolated finding. […] Definite differences could be identified to varying degrees in the lashes and adjacent hairs of all patients who were taking the drug on a unilateral basis for longer than 6 months.
The changes in the lashes were apparent on gross inspection in several patients once attention was focused on the issue. In those with light colored hair and lashes, the differences were only seen easily with the aid of the high magnification and lighting capabilities of the slit lamp biomicroscope. In the course of glaucoma follow-up examination, attention is generally immediately focused on the eye itself. As a result of the high power magnification needed only one eye is seen at a time and the eye is seen at a high enough power that the lashes are not in focus. […]

## CCNC(=O)CCC/C=C\C[C@@H]1[C@@H](/C=C/[C@@H](O)CCc2ccccc2)[C@H](O)C[C@@H]1O [bimatoprost]
  lash appearance in treated eye versus non-treated eye: longer, thicker, and fuller in the treated eye than in the non-treated eye
